Assay results: patent publication US11834453B2, “Substituted pyrimido[5,4-d]pyrimidines as HER2 inhibitors” (Array BioPharma Inc., priority 2020, dated 2023)
Read-outs that look alike come from different tables or passages of the source.

Columns and labels:
[1] = target: ErbB2 with Exon 20 YVMA insertion (HER2-YVMA) (Homo sapiens (Human), UniProt P04626, INS775YVMA); assay: Cellular phosphorylation assay, constitutive ErbB2 phosphorylation (Y1196) in engineered NIH 3T3 cells, Assay 4; assay type: cell-based
Method in brief: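 In-cell Western in NIH 3T3 cells carrying ErbB2 exon 20 YVMA insertion, with no ligand stimulation. One hour compound exposure at 37 °C before fixation and anti-pY1196 plus GAPDH staining with dual-wavelength fluorescence. IC50 derived after GAPDH normalization.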

[2] = target: MDR1 (P-gp) (Homo sapiens (Human), UniProt P08183); assay: MDR1 transfected MDCKII canine Mdr1 knockout permeability/efflux, Assay 7; conditions: dog, MDCK-MDR1
[3] = target: ErbB2 WT (Homo sapiens (Human), UniProt P04626); assay: ErbB enzyme assay (CisBio HTRF KinEASE-TK), Assay 2; assay type: biochemical
Method in brief: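 Readout is HTRF KinEASE-TK, using Sa-XL665 and cryptate antibody for 1 h at 22 °C, as percent of control between DMSO-only (100) and pre-quenched (0) reactions. The kinase reaction runs 30 min at 22 °C with 1 mM ATP and 250 nM biotinylated TK substrate, in HEPES pH 7.4 with MgCl2 and 2% DMSO.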

[4] = target: ErbB2 insYVMA (HER2-YVMA, SEQ ID NO: 2) (Homo sapiens, UniProt P04626, INS775YVMA/P1170A); assay: biochemical; conditions: ErbB2 insYVMA enzyme assay
[5] = target: EGFR (Homo sapiens (Human), UniProt P00533); assay: ErbB enzyme assay (CisBio HTRF KinEASE-TK), Assay 3; assay type: biochemical
Method in brief: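 First, enzyme was reacted with compound, 1 mM ATP and 250 nM biotinylated tyrosine-kinase peptide for 30 min at 22 °C at pH 7.4. Next, streptavidin-XL665 and cryptate antibody were added for 1 h. Finally, HTRF ratios were converted to POC and fitted to yield IC50.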

[6] = target: EGFR wild type (EGFR WT) (Homo sapiens (Human), UniProt P00533); assay: Cellular phosphorylation assay, EGF-stimulated EGFR phosphorylation in engineered NIH 3T3 cells, Phospho-EGFR DuoSet IC ELISA, Assay 5; assay type: cell-based
Method in brief: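 Phospho-EGFR ELISA on lysates of engineered NIH 3T3 EGFR WT cells, IC50 derived from concentration curves. Cells plated at 20,000/well overnight, given compound dilutions 1 h at 37 °C, then rEGF 100 ng/ml for a further 10 min before lysis.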

Chain of ErbB2 with Exon 20 YVMA insertion (HER2-YVMA) (P04626 other isoform, or with tags, fused parts or gaps ins YVMA behind 775): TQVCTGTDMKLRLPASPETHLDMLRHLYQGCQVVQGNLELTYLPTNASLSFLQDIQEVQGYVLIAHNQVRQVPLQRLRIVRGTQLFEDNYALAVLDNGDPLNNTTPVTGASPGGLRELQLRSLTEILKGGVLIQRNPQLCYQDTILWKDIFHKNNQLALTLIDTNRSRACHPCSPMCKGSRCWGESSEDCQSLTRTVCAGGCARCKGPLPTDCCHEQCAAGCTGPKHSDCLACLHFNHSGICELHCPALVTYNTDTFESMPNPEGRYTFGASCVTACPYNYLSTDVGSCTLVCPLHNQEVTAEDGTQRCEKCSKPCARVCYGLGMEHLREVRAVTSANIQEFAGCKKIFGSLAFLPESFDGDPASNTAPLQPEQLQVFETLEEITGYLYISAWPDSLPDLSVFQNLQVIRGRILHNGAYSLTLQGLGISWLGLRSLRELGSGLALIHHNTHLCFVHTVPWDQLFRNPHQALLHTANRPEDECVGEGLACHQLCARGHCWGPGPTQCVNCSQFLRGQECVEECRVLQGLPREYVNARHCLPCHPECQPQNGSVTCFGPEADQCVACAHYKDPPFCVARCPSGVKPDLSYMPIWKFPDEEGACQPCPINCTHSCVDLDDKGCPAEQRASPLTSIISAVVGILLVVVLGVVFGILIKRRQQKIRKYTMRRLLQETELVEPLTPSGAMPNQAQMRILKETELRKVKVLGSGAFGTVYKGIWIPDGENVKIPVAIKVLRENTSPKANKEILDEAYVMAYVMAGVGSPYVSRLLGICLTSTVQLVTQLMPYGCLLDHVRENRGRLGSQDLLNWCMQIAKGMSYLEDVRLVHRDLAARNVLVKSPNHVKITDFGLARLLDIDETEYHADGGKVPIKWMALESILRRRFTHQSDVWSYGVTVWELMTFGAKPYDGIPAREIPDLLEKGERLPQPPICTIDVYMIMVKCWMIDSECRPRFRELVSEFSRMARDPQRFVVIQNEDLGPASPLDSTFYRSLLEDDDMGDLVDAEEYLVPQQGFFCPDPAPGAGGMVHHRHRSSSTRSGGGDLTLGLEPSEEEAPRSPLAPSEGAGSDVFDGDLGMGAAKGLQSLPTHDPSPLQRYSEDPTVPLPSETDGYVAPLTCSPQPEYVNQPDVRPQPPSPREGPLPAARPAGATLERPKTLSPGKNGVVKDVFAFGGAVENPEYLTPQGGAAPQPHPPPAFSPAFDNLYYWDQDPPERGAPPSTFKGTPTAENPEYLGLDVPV
Chain of MDR1 (P-gp) (P08183 whole entry): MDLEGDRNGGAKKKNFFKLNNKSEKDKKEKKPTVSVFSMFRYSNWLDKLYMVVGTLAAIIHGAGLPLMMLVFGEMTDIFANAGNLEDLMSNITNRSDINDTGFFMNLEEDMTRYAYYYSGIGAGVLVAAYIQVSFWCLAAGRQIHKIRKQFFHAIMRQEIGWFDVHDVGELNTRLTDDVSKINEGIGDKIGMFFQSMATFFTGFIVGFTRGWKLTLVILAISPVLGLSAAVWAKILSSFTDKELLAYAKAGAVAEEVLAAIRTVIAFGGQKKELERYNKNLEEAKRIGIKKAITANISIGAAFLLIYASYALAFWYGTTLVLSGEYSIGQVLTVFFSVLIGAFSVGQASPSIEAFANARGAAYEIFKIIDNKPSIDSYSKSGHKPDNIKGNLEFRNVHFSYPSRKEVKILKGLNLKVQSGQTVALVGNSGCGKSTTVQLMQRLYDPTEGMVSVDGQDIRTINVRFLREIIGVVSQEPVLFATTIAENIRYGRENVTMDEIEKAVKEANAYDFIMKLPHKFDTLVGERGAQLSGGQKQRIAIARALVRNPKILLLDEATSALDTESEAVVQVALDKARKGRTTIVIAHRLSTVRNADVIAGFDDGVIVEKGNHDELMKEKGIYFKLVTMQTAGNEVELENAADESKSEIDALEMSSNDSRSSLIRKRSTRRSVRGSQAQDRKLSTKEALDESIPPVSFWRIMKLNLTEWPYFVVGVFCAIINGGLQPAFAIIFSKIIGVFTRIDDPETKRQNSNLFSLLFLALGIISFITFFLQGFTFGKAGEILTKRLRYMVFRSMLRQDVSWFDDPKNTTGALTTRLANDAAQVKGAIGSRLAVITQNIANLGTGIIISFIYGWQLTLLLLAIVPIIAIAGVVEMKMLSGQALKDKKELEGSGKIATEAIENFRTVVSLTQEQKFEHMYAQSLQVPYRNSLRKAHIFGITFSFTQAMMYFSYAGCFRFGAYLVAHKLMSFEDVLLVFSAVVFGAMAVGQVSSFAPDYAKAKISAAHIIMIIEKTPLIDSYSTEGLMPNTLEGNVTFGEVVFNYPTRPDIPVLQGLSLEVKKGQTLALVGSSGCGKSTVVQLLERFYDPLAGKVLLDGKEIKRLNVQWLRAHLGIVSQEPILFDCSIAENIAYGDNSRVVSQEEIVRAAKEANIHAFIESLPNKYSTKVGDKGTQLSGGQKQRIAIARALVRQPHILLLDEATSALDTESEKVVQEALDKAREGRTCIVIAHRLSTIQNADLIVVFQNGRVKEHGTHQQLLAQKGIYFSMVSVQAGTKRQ
Chain of ErbB2 WT (P04626 23-1255): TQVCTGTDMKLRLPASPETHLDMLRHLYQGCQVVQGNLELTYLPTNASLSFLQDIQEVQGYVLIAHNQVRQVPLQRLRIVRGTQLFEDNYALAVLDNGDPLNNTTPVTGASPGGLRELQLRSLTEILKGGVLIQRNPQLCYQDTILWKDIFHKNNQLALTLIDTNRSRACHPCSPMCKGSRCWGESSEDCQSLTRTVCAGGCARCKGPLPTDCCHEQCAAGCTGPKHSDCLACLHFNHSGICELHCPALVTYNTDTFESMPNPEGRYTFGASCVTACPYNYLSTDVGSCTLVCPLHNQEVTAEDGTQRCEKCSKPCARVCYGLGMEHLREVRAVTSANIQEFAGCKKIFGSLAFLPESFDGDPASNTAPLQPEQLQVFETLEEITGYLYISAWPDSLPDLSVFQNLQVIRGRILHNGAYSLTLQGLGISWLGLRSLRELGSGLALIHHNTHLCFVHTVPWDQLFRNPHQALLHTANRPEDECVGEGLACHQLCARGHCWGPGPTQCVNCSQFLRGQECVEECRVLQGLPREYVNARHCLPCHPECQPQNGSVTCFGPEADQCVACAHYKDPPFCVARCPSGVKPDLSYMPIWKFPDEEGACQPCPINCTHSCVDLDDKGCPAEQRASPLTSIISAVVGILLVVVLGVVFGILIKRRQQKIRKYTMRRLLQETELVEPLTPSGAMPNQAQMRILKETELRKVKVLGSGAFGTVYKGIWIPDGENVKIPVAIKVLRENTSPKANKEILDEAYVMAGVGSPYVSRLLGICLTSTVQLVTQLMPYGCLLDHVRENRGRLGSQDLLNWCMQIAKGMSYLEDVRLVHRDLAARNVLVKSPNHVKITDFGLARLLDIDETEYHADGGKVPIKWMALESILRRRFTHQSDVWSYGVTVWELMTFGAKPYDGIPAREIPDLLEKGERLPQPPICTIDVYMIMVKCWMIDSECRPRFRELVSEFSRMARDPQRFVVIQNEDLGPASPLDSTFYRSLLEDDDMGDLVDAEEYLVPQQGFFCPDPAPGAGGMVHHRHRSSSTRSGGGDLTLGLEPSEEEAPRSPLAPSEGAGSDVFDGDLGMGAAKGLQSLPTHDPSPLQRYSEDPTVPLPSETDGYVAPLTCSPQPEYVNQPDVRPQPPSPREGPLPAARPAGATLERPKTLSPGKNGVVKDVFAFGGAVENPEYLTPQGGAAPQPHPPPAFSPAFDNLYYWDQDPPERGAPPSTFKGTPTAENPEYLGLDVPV
Chain of ErbB2 insYVMA (HER2-YVMA, SEQ ID NO: 2) (P04626 with tags, fused parts or gaps INS775YVMA/P1170A limits assumed): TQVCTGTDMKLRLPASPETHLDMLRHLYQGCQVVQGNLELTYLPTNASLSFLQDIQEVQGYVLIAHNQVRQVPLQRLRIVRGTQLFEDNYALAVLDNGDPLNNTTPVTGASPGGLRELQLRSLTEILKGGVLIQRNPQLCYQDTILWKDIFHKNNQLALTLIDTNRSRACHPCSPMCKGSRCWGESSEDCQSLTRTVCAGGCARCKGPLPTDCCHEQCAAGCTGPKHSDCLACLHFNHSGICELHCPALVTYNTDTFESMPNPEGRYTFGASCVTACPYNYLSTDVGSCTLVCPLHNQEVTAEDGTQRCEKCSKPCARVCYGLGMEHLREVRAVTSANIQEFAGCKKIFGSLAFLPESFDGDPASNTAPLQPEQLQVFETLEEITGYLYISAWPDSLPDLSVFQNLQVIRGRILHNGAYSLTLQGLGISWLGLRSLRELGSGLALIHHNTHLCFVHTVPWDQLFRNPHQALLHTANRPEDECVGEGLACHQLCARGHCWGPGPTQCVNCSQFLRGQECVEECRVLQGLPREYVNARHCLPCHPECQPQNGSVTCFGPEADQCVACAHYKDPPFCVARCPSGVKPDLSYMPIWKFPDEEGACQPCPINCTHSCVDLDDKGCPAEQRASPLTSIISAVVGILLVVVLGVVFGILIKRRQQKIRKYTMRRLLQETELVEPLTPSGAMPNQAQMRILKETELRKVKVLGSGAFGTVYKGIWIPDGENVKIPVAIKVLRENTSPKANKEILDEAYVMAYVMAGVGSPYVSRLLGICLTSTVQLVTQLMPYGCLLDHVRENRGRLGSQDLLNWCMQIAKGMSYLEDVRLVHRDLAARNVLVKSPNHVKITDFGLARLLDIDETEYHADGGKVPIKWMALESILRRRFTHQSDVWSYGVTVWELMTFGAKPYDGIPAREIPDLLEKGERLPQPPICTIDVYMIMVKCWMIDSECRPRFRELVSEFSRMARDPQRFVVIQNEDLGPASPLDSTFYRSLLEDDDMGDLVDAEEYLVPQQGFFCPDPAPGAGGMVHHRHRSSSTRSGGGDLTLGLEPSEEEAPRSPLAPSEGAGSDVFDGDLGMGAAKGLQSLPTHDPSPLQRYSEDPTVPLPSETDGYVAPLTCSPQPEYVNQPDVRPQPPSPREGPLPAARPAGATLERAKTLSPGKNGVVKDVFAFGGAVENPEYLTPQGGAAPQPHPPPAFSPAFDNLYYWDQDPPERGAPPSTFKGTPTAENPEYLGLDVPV

Row | SMILES | IC50 [1] | efflux ratio at 2 h, 1 μM [2] | IC50 [3] | IC50 ([4]; read-out: Assay 1 IC50) | IC50 [5] | IC50 [6] | IC50 ([4]; Assay 1 IC50 (nM))
1 | Cc1cc(Nc2ncnc3cnc(N4CC[C@H](O)C4)nc23)ccc1Oc1ccc2c(c1)ncn2C [Example 174, (S)-1-(8-((3-methyl-4-((1-methyl-1H-benzo[d]imidazol-5-yl)oxy)phenyl)amino)pyrimido[5,4-d]pyrimidin-2-yl)pyrrolidin-3-ol] | 8 nM | 3.1 | 31.4 nM | 11.5 nM | 2770 nM | ≥ 5000 nM | 
2 | Cc1cc(Nc2ncnc3cnc(N(C)[C@H]4C[C@@](C)(O)C4)nc23)ccc1Oc1ccc2c(c1)ncn2C [Example 165, (1s, 3s)-1-methyl-3-(methyl(8-((3-methyl-4-((1-methyl-1H-benzo[d]imidazol-5-yl)oxy)phenyl)amino)pyrimido[5,4-d]pyrimidin-2-yl)amino)cyclobutan-1-ol] | 11.4 nM | 2.1 | 5.6 nM | 7.5 nM | 216 nM | ≥ 5000 nM | 
3 | Cc1cc(Nc2ncnc3cnc(N4C[C@@H]5C[C@H]4C[C@@H]5O)nc23)ccc1Oc1ccc2c(c1)ncn2C [Example 470] | 24.3 nM | 2.5 | 52.3 nM | 38.3 nM | 6840 nM | ≥ 5000 nM | 
4 | Cn1cnc2cc(Oc3ccc(Nc4ncnc5cnc(N6CCN7CCOC[C@H]7C6)nc45)cc3Cl)ccc21.O=C(O)C(F)(F)F.O=C(O)C(F)(F)F [Example 150, (R)—N-(3-chloro-4-((1-methyl-1H-benzo[d]imidazol-5-yl)oxy)phenyl)-6-(hexahydropyrazino[2,1-c][1,4]oxazin-8(1H)-yl)pyrimido[5,4-d]pyrimidin-4-amine bis(2,2,2-trifluoroacetate)] | 9.1 nM | 2.2 | 22.3 nM |  | ≥ 10000 nM | ≥ 5000 nM | 32 nM
5 | Cc1cc(Nc2ncnc3cnc(N4CC[C@@H](O)C4)nc23)ccc1Oc1ccc2c(c1)ncn2C [Example 169, (R)-1-(8-((3-methyl-4-((1-methyl-1H-benzo[d]imidazol-5-yl)oxy)phenyl)amino)pyrimido[5,4-d]pyrimidin-2-yl)pyrrolidin-3-ol] | 4.7 nM | 3.6 | 11.2 nM | 8.5 nM | 1630 nM | ≥ 5000 nM | 
6 | Cc1cc(Nc2ncnc3cnc(N[C@@H]4CNCC4(F)F)nc23)ccc1Oc1ccc2c(c1)ncn2C [Example 297] | 29.4 nM | 3.2 | 40 nM | 17.6 nM | 3320 nM | ≥ 5000 nM | 
7 | Cc1cc(Nc2ncnc3cnc(N4CC[C@H](F)[C@@H](O)C4)nc23)ccc1Oc1ccc2c(c1)ncn2C [Example 162, (3S,4S)-4-fluoro-1-(8-((3-methyl-4-((1-methyl-1H-benzo[d]imidazol-5-yl)oxy)phenyl)amino)pyrimido[5,4-d]pyrimidin-2-yl)piperidin-3-ol] | 36.4 nM | 2.8 | 31.6 nM | 19.4 nM | 7360 nM | ≥ 5000 nM | 
8 | Cc1cc(Nc2ncnc3cnc(NCC4(O)COC4)nc23)ccc1Oc1ccc2c(c1)ncn2C [Example 319] | 26.3 nM | 10.6 | 4.5 nM | 16.7 nM | 870 nM | ≥ 5000 nM | 
9 | Cn1cnc2cc(Oc3ccc(Nc4ncnc5cnc(N6CCN7CCOC[C@@H]7C6)nc45)cc3Cl)ccc21.O=C(O)C(F)(F)F.O=C(O)C(F)(F)F [Example 151, (S)—N-(3-chloro-4-((1-methyl-1H-benzo[d]imidazol-5-yl)oxy)phenyl)-6-(hexahydropyrazino[2,1-c][1,4]oxazin-8(1H)-yl)pyrimido[5,4-d]pyrimidin-4-amine bis(2,2,2-trifluoroacetate)] | 18.8 nM | 1.2 | 61.4 nM |  | ≥ 10000 nM | ≥ 5000 nM | 24.6 nM
